The values below come from patent publication US10736883B2, “Triazole furan compounds as agonists of the APJ receptor” (AMGEN INC., priority 2016, dated 2020).

For this assay, the target named is APJ receptor (Homo sapiens (Human), UniProt P35414). Description: [35S]GTPγS binding assay on membranes from CHO cells stably expressing human APJ receptor. The conditions noted are these: membranes of CHO cells stably expressing human APJ receptor, means of several independent experiments, read-out: Activity hAPJ SPA EC50 IP. The class given is biochemical. The method in brief: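 EC50 values were obtained by non-linear regression of [35S]GTPγS (0.2 nM) binding after 90 min at RT, with nonspecific binding defined by 100 μM GTPγS. Reactions used human APJ–expressing CHO cell membranes on WGA PS beads in HEPES pH 7.5 buffer with 5 mM MgCl2, 200 mM NaCl, 3 μM GDP and 0.1% BSA.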
APJ receptor, sequence (P35414 whole entry): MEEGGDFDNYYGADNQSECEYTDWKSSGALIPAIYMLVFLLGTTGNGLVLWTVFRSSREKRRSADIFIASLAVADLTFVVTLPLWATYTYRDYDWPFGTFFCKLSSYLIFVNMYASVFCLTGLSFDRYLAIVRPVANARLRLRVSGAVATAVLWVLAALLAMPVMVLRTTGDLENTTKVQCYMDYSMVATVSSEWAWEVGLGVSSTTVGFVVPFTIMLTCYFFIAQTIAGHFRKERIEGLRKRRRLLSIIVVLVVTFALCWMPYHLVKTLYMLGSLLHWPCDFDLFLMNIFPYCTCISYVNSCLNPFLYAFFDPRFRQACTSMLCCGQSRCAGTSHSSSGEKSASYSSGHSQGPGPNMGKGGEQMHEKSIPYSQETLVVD

In general, EC50 refers to the concentration at which the effect is half-maximal. Consider `COc1cccc(OC)c1-n1c(NS(=O)(=O)[C@H]2C[C@@H](C(=O)N3CCC3)CN(c3ncc(F)cn3)C2)nnc1-c1ccco1` (single isomer, unassigned) [Example 162.0, (3R,5S)-5-(1-Azetidinylcarbonyl)-N-(4-(2,6-dimethoxyphenyl)-5-(2-furanyl)-4H-1,2,4-triazol-3-yl)-1-(5-fluoro-2-pyrimidinyl)-3-piperidinesulfonamide or (3S,5R)-5-(1-azetidinylcarbonyl)-N-(4-(2,6-dimethoxyphenyl)-5-(2-furanyl)-4H-1,2,4-triazol-3-yl)-1-(5-fluoro-2-pyrimidinyl)-3-piperidinesulfonamide], for which the concentration giving a half-maximal response (EC50) is 0.68 nM.

Take “(1R,2R)-N-(4-(2,6-dimethoxyphenyl)-5-(5-methyl-2-furanyl)-4H-1,2,4-triazol-3-yl)-1-methoxy-1-(5-methyl-2-pyrimidinyl)-2-propanesulfonamide or (1S,2S)-N-(4-(2,6-dimethoxyphenyl)-5-(5-methyl-2-furanyl)-4H-1,2,4-triazol-3-yl)-1-methoxy-1-(5-methyl-2-pyrimidinyl)-2-propanesulfonamide [Example 226.0]”: the EC50 turned out to be 0.35 nM.

On to `COc1cccc(OC)c1-n1c(NS(=O)(=O)[C@@H](C)[C@H](O)c2ccc(F)c(C#N)c2)nnc1-c1ccc(C)o1` (single isomer, unassigned) [Example 81.0], for which the EC50 came to 1.1 nM.

As for `COc1cccc(OC)c1-n1c(NS(=O)(=O)[C@@H](C)[C@@H](C)c2ncc(F)cn2)nnc1-c1ccco1` (racemic) [Example 218.0, (2R,3R)—N-(4-(2,6-dimethoxyphenyl)-5-(2-furanyl)-4H-1,2,4-triazol-3-yl)-3-(5-fluoro-2-pyrimidinyl)-2-butanesulfonamide and (2S,3S)—N-(4-(2,6-dimethoxyphenyl)-5-(2-furanyl)-4H-1,2,4-triazol-3-yl)-3-(5-fluoro-2-pyrimidinyl)-2-butanesulfonamide], the EC50 was found to be 0.25 nM.

`COc1cccc(OC)c1-n1c(NS(=O)(=O)[C@H]2C[C@@H](O)CN(c3ccc(F)c(C#N)c3)C2)nnc1-c1ccc(C)o1` (racemic) [Example 329.0, (3S,5R)-1-(3-Cyano-4-fluorophenyl)-N-(4-(2,6-dimethoxyphenyl)-5-(5-methyl-2-furanyl)-4H-1,2,4-triazol-3-yl)-5-hydroxy-3-piperidinesulfonamide and (3R,5S)-1-(3-cyano-4-fluorophenyl)-N-(4-(2,6-dimethoxyphenyl)-5-(5-methyl-2-furanyl)-4H-1,2,4-triazol-3-yl)-5-hydroxy-3-piperidinesulfonamide]: the EC50 stood at 0.38 nM.

Turning to `COc1cccc(OC)c1-n1c(NS(=O)(=O)[C@@H](C)[C@H](C)c2cnc(C)cn2)nnc1-c1ccc(C)o1` [Example 148.0, (2S,3R)—N-(4-(2,6-Dimethoxyphenyl)-5-(5-methyl-2-furanyl)-4H-1,2,4-triazol-3-yl)-3-(5-methyl-2-pyrazinyl)-2-butanesulfonamide], the EC50 came to 0.19 nM.

As for `COc1cccc(OC)c1-n1c(NS(=O)(=O)[C@H]2C[C@@H](O)CN(C(=O)N(C)C)C2)nnc1-c1ccc(C)o1` (single isomer, unassigned) [Example 337.0, (3S,5R)-3-(N-(4-(2,6-Dimethoxyphenyl)-5-(5-methylfuran-2-yl)-4H-1,2,4-triazol-3-yl)sulfamoyl)-5-hydroxy-N,N-dimethylpiperidine-1-carboxamide or (3R,5S)-3-(N-(4-(2,6-dimethoxyphenyl)-5-(5-methylfuran-2-yl)-4H-1,2,4-triazol-3-yl)sulfamoyl)-5-hydroxy-N,N-dimethylpiperidine-1-carboxamide], the EC50 was found to be 1.3 nM.

As for `COc1cccc(OC)c1-n1c(NS(=O)(=O)[C@H](C)Cc2ccc(C)nn2)nnc1-c1ccc(C)o1` (single isomer, unassigned) [Example 43.0, (2R)—N-(4-(2,6-dimethoxyphenyl)-5-(5-methyl-2-furanyl)-4H-1,2,4-triazol-3-yl)-1-(6-methyl-3-pyridazinyl)-2-propanesulfonamide or (2S)—N-(4-(2,6-dimethoxyphenyl)-5-(5-methyl-2-furanyl)-4H-1,2,4-triazol-3-yl)-1-(6-methyl-3-pyridazinyl)-2-propanesulfonamide], the EC50 stood at 25 nM.

With `COc1cccc(OC)c1-n1c(NS(=O)(=O)CCc2ccc(C#N)cn2)nnc1-c1ccco1` [Example 35.0, 2-(5-cyano-2-pyridinyl)-N-(4-(2,6-dimethoxyphenyl)-5-(2-furanyl)-4H-1,2,4-triazol-3-yl)ethanesulfonamide], the EC50 was 3.5 nM.

For the molecule `COc1cccc(OC)c1-n1c(NS(=O)(=O)CCc2ncc(Cl)cc2C2=CCN(C)CC2)nnc1-c1ccco1` [Example 214.0, 2-(5-Chloro-1′-methyl-1′,2′,3′,6′-tetrahydro-3,4′-bipyridin-2-yl)-N-(4-(2,6-dimethoxyphenyl)-5-(2-furanyl)-4H-1,2,4-triazol-3-yl)ethanesulfonamide], the EC50 came to 0.21 nM.

For the molecule `COc1ccccc1-n1c(NS(=O)(=O)[C@@H](C)[C@H](C)c2ncc(F)cn2)nnc1-c1ccc(C)o1` [Example 172.0, (2S,3R)-3-(5-Fluoro-2-pyrimidinyl)-N-(4-(2-methoxyphenyl)-5-(5-methyl-2-furanyl)-4H-1,2,4-triazol-3-yl)-2-butanesulfonamide], the EC50 came out at 1.2 nM.

Turning to `COc1cccc(OC)c1-n1c(NS(=O)(=O)[C@@H](C)[C@@H](O)c2coc(C)n2)nnc1-c1ccc(C)o1` (single isomer, unassigned) [Example 55.0, (1S,2S)—N-(4-(2,6-dimethoxyphenyl)-5-(5-methyl-2-furanyl)-4H-1,2,4-triazol-3-yl)-1-hydroxy-1-(2-methyl-1,3-oxazol-4-yl)-2-propanesulfonamide or (1R,2R)—N-(4-(2,6-dimethoxyphenyl)-5-(5-methyl-2-furanyl)-4H-1,2,4-triazol-3-yl)-1-hydroxy-1-(2-methyl-1,3-oxazol-4-yl)-2-propanesulfonamide], the EC50 turned out to be 28 nM.

For `COc1cccc(OC)c1-n1c(NS(=O)(=O)[C@@H](C)[C@H](C)c2ncc(C)cn2)nnc1-c1ccc(C)o1` [Example 262.0, (2S,3R)-N-(4-(2,6-dimethoxyphenyl)-5-(5-methylfuran-2-yl)-4H-1,2,4-triazol-3-yl)-3-(5-methylpyrimidin-2-yl)butane-2-sulfonamide], the EC50 is 0.07 nM.

For the molecule `COc1cccc(OC)c1-n1c(NS(=O)(=O)[C@H](C)[C@H](O)c2ccc(C#N)c(C)n2)nnc1-c1ccc(C)o1` (single isomer, unassigned) [Example 86.0], the EC50 stood at 0.23 nM.

On to `COc1cccc(OC)c1-n1c(NS(=O)(=O)CCc2ncc(Cl)cc2N2CCC2=O)nnc1-c1ccco1` [Example 27.0, 2-(5-chloro-3-(2-oxo-1-azetidinyl)-2-pyridinyl)-N-(4-(2,6-dimethoxyphenyl)-5-(2-furanyl)-4H-1,2,4-triazol-3-yl)ethanesulfonamide], for which the EC50 stood at 0.46 nM.

As for `COc1cccc(OC)c1-n1c(NS(=O)(=O)[C@H](C)Cc2ncc(Br)cn2)nnc1-c1ccco1` (single isomer, unassigned) [Example 36.0, (2R)-1-(5-bromo-2-pyrimidinyl)-N-(4-(2,6-dimethoxyphenyl)-5-(2-furanyl)-4H-1,2,4-triazol-3-yl)-2-propanesulfonamide or (2S)-1-(5-bromo-2-pyrimidinyl)-N-(4-(2,6-dimethoxyphenyl)-5-(2-furanyl)-4H-1,2,4-triazol-3-yl)-2-propanesulfonamide], the EC50 was determined as 3.5 nM.

Take `COc1cccc(OC)c1-n1c(NS(=O)(=O)[C@H]2CC[C@H]3CCCC(=O)N3C2)nnc1-c1ccc(C)o1` (single isomer, unassigned) [Example 173.0]: the EC50 worked out at 1.6 nM.

As to `COc1cccc(OC)c1-n1c(NS(=O)(=O)[C@@H](C)[C@H](O)c2ncc(C#N)cc2F)nnc1-c1ccc(C)o1` (single isomer, unassigned) [Example 68.0], the EC50 turned out to be 0.37 nM.

Take `COc1cccc(OC)c1-n1c(NS(=O)(=O)[C@H](C)Cc2ncc(F)cn2)nnc1-c1cc(C)c(C)o1` (single isomer, unassigned) [Example 89.0, (R)—N-(4-(2,6-Dimethoxyphenyl)-5-(4,5-dimethylfuran-2-yl)-4H-1,2,4-triazol-3-yl)-1-(5-fluoropyrimidin-2-yl)propane-2-sulfonamide or (S)—N-(4-(2,6-dimethoxyphenyl)-5-(4,5-dimethylfuran-2-yl)-4H-1,2,4-triazol-3-yl)-1-(5-fluoropyrimidin-2-yl)propane-2-sulfonamide]: the EC50 was 1.9 nM.

Regarding `COc1cccc(OC)c1-n1c(NS(=O)(=O)C[C@H](O)c2ccc(C#N)cn2)nnc1-c1ccc(C)o1` (single isomer, unassigned) [Example 58.0, (2R)-2-(5-cyano-2-pyridinyl)-N-(4-(2,6-dimethoxyphenyl)-5-(5-methyl-2-furanyl)-4H-1,2,4-triazol-3-yl)-2-hydroxyethanesulfonamide or (2S)-2-(5-cyano-2-pyridinyl)-N-(4-(2,6-dimethoxyphenyl)-5-(5-methyl-2-furanyl)-4H-1,2,4-triazol-3-yl)-2-hydroxyethanesulfonamide], the EC50 was found to be 0.13 nM.

For `COc1cccc(OC)c1-n1c(NS(=O)(=O)CCN2C(=O)N(C)CC[C@@H]2C)nnc1-c1ccc(C)o1` (single isomer, unassigned) [Example 164.0, N-(4-(2,6-Dimethoxyphenyl)-5-(5-methyl-2-furanyl)-4H-1,2,4-triazol-3-yl)-2-((6S)-3,6-dimethyl-2-oxotetrahydro-1(2H)-pyrimidinyl)ethanesulfonamide or N-(4-(2,6-dimethoxyphenyl)-5-(5-methyl-2-furanyl)-4H-1,2,4-triazol-3-yl)-2-((6R)-3,6-dimethyl-2-oxotetrahydro-1(2H)-pyrimidinyl)ethanesulfonamide], the EC50 worked out at 0.74 nM.
